Columns and labels:
MK2 [1] = biological target: T1, MK2 (Homo sapiens, UniProt P49137); assay: MK2 degradation in human THP-1 monocytic cells (MSD, 24 h); type: cell-based; parameters: endogenous in cells; key to MK2 MSD THP-1 degradation 24 h GMean External Abs DC50: A (<0.001 μM); B (0.001-0.01 μM); C (0.01-0.1 μM); D (>0.1 μM); —: “-”=not tested or inactive; details: for Dmax: THP-1, THP-1 cells; for DC50: read-out: MK2 MSD THP-1 degradation 24 h GMean External Abs DC50
Procedure, shortened: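 THP-1 cells (200,000/well) treated 24 h at 37 °C with compound dilution series (up to 10 points, 0.1% DMSO). MK2 in RIPA lysates quantified by MSD sandwich immunoassay. DC50 from 4-parameter logistic fit, DMSO-treated cells as high and lysis buffer as low signal.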

MK2 [2] = biological target: T1, MK2; assay: MK2 degradation in human SW1353 cells (MSD, 24 h); type: cell-based; parameters: endogenous in cells; host or cells: SW-1353 (ATCC HTB-94); details: for Dmax: read-out: MK2 MSD SW 1353 24 h Dmax %; for DC50: read-out: MK2 MSD SW1353 degradation 24 h GMean External Abs DC50
Procedure, shortened: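 SW1353 chondrosarcoma cells were treated with up to 10-point serial dilutions (0.1% DMSO) for 24 h at 37 °C, then lysed in RIPA buffer. MK2 levels were quantified by MSD sandwich immunoassay; DC50 came from a 4-parameter logistic fit normalised to DMSO-treated cells (high) and lysis buffer (low).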

T1 sequence (P49137 whole entry): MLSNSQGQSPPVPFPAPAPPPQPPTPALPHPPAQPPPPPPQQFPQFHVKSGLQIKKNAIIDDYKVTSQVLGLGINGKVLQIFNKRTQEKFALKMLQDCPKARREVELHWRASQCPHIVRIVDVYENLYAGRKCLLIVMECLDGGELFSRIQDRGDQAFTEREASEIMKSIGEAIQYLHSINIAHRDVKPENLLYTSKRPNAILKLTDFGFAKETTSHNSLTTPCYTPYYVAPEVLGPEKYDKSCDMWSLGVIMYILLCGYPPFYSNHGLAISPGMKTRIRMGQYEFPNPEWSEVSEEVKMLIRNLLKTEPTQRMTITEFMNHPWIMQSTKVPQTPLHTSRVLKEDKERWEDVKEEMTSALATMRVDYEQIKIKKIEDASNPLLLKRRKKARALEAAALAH

Row | Structure (SMILES) | Dmax (MK2 [1]) [%] | MK2 MSD THP-1 degradation 24 h GMean External Abs DC50 (MK2 [1]; THP-1 cells) | Dmax (MK2 [2]) [%] | DC50 (MK2 [2]) [nM] | DC50 (MK2 [1]; THP-1 cells) [nM]
1 | Cc1cc(N2CCN(CCCc3ccc4c(c3)n(C)c(=O)n4C3CCC(=O)NC3=O)CC2)ccc1-c1ccc2c(ccc3sc4c(c32)NC[C@@H](C)NC4=O)n1 (stereo partly drawn) [Compound I-260] | 50 to 75 | — | > 75 | < 1 | 
2 | Cn1c(=O)n(C2CCC(=O)NC2=O)c2cccc(N3CCC(CCN4CCN(c5ccc(-c6cc(-c7cc8c([nH]7)CCNC8=O)ccn6)cc5)CC4)CC3)c21 (stereo not drawn) [Compound I-139] | > 75 |  | > 75 | 1 to 10 | < 1
3 | C[C@@H]1CN(C)c2c(sc3ccc4nc(-c5ccc(N6CCN(CCc7cccc8c7n(C)c(=O)n8C7CCC(=O)NC7=O)CC6)cc5)ccc4c23)C(=O)N1 (stereo partly drawn) [Compound I-413] | > 75 |  | > 75 | 1 to 10 | < 1
4 | Cn1c(=O)n(C2CCC(=O)NC2=O)c2ccc(N3CCC(CN4CCN(c5cc(-c6ccc7cc[nH]c7c6)cc(-n6cc(-c7ccc8c(c7)CCNC8=O)c(N)n6)c5)CC4)CC3)cc21 (stereo not drawn) [Compound I-461] | 50 to 75 |  | > 75 | 1 to 10 | 10 to 100
5 | C[C@@H]1CNc2c(sc3ccc4nc(-c5ccc(N6CCN(CC7CCN(c8ccc(N9CCC(=O)NC9=O)cc8)CC7)CC6)nc5)ccc4c23)C(=O)N1 [Compound I-438] | > 75 |  | > 75 | 1 to 10 | 1 to 10
6 | Cn1c(=O)n(C2CCC(=O)NC2=O)c2cccc(CCCCCN3CCN(c4ccc(F)c(-c5cc(-c6cc7c([nH]6)CCNC7=O)ccn5)c4)CC3)c21 (stereo not drawn) [Compound I-134] | < 50 |  | < 50 | > 100 | > 100
7 | C[C@@H]1CNc2c(sc3ccc4nc(-c5cccc(N6CCN(CCN7CCC(CCc8cccc9c8n(C)c(=O)n9C8CCC(=O)NC8=O)CC7)CC6)c5)ccc4c23)C(=O)N1 (stereo partly drawn) [Compound I-105] | > 75 |  | > 75 | 1 to 10 | < 1
8 | C[C@@H]1CNc2c(sc3ccc4nc(-c5ccnc(N6CCN(CCCc7ccc8c(c7)n(C)c(=O)n8C7CCC(=O)NC7=O)CC6)c5)ccc4c23)C(=O)N1 (stereo partly drawn) [Compound I-275] | > 75 |  | > 75 | < 1 | < 1
9 | CN1CC2(CNC(=O)c3c2[nH]c2c3CCc3cnc(-c4ccc(N5CCN(CCCCc6cccc7c6n(C)c(=O)n7C6CCC(=O)NC6=O)CC5)cc4F)cc3-2)C1 (stereo not drawn) [Compound I-154] | > 75 |  | > 75 | 10 to 100 | 10 to 100
10 | C[C@@H]1CNc2c(sc3ccc4nc(N5CCC(CN6CCC7(CC6)CCN(c6ccc8c(c6)n(C)c(=O)n8C6CCC(=O)NC6=O)CC7)CC5)ccc4c23)C(=O)N1 (stereo partly drawn) [Compound I-391] | > 75 |  | > 75 | < 1 | < 1
11 | C[C@@H]1CNc2c(sc3ccc4nc(N5CCN(C6CC7(CCN(c8cccc9c8n(C)c(=O)n9C8CCC(=O)NC8=O)CC7)C6)CC5)ccc4c23)C(=O)N1 (stereo partly drawn) [Compound I-443] | > 75 |  | > 75 | < 1 | < 1
12 | C[C@@H]1CNc2c(sc3ccc4nc(-c5cccc(N6CCC(CN7CCN(c8cccc9c(N%10CCC(=O)NC%10=O)cncc89)CC7)CC6)c5)ccc4c23)C(=O)N1 [Compound I-310] | > 75 |  | > 75 | 1 to 10 | 1 to 10
13 | C[C@@H]1CNc2c(sc3ccc4nc(-c5ccc(N6CCN(CCCc7ccc8c(c7)n(C)c(=O)n8C7CCC(=O)NC7=O)CC6)cc5)ccc4c23)C(=O)N1 (stereo partly drawn) [Compound I-173] | > 75 |  | > 75 | < 1 | < 1
14 | Cc1cc(-c2ccc3c(ccc4sc5c(c43)NC[C@@H](C)NC5=O)n2)cnc1N1CCN(CC2CCN(c3ccc4c(c3)n(C)c(=O)n4C3CCC(=O)NC3=O)CC2)CC1 (stereo partly drawn) [Compound I-272] | > 75 |  | > 75 | < 1 | < 1
15 | Cn1c(=O)n(C2CCC(=O)NC2=O)c2cccc(CCCCCCCN3CCN(c4ccc(F)c(-c5cc(-c6cc7c([nH]6)CCNC7=O)ccn5)c4)CC3)c21 (stereo not drawn) [Compound I-135] | < 50 |  | < 50 | > 100 | > 100
